# Columns and labels:
# Huntingtin mRNA [1] = assay: In vivo down-modulation of endogenous HD mRNA by intrastriatal infusion in mice; design: species or system mouse; conditions: Balb/c mice, 75 ug by 20 minute intrastriatal infusion, ipsilateral striatum, approximately 72 hours after injection
# Procedure: In mice, 75 ug AL-DP-1998, or phosphate-buffered saline (PBS, vehicle control) was administered by a 20 minute intrastriatal infusion. Male Balb/c mice, approximately 20-25 g body weight, received unilateral injections of test article that were targeted to the striatum (anteroposterior+0.5 mm, mediolateral+2.0 mm, relative to bregma; dorsoventral 3.5 mm, relative to skull surface). Test articles (1.1 mM) were injected (4 animals per test article) at 0.25 uL/min. using pre-filled, pump-regulated Hamilton micro-syringes connected to a 33 gauge needle. Approximately 72 hours following the injection, animals were sacrificed, brains were removed, and ipsilateral striata encompassing the infusion site were dissected and flash frozen. As described above for rat tissue samples, mouse tissue samples were lysed, and Huntingtin and GAPDH mRNA levels quantified. For each tissue sample, the ratio of Huntingtin/GAPDH (normalized Huntingtin mRNA level) was calculated as an average of four determinations. These ratios were then averaged to obtain a group (treatment) average. The cholesterol-conjugated dsRNA, AL-DP-1998, reduced the normalized Huntingtin mRNA level by 33%, relative to the PBS control group, which was statistically significant (p<0.05, ANOVA with Tukey post-hoc analysis).
# Huntingtin mRNA [2] = assay: In vivo down-modulation of endogenous HD mRNA by continuous intrastriatal infusion in rats; design: species or system rat; conditions: 1.3 mg over 7 days (0.5 uL/hr at 1.1 mM), ipsilateral striatum
# Procedure: In rats, 1.3 mg AL-DP-1997 or AL-DP-1998, or phosphate-buffered saline (PBS, vehicle control) was administered by continuous intrastriatal infusion over 7 days. Male Sprague-Dawley rats, approximately 250-300 g body weight, received stereotaxic implantation of 30-gauge infusion cannulae (Plastics One, Roanok, Va.) such that unilateral injections were targeted to the center of the striatum (anteroposterior+0.7 mm, mediolateral+3.0 mm, relative to bregma; dorsoventral 5 mm, relative to skull surface). Mini-osmotic pumps (model 1007D) were primed overnight according to the manufacturer's specifications, implanted subcutaneously, and connected via catheters, to deliver (4 rats per treatment group) PBS, 1.1 mM AL-DP-1997 or 1.1 mM AL-DP-1998 at 0.5 uL/hr over 7 days. At the end of the 7 day infusion period, animals were sacrificed, brains were removed, and ipsilateral striata encompassing the infusion site were flash frozen. Tissue samples of about 5-30 mg each were homogenized by sonication (BANDELIN electronic GmbH & Co. KG, Berlin, Germany) in Tissue and Cell Lysis solution (Epicentre, Madison, Wis.) containing 84 μg/ml Proteinase K (Epicentre, Madison, Wis.). Lysates were then stored at −80° C. For carrying out the bDNA assay, frozen lysates were thawed at room temperature, and Huntingtin and GAPDH mRNA were quantified using the Quantigene Explore Kit according to the manufacturer's instructions. For each tissue sample, the ratio of Huntingtin/GAPDH (normalized Huntingtin mRNA level) was calculated as an average of four determinations. These ratios were then averaged to obtain a group (treatment) average. The unconjugated dsRNA, AL-DP-1997, reduced the normalized Huntingtin mRNA level by 33%, relative to the PBS control group, whereas the cholesterol-conjugated dsRNA, AL-DP-1998, reduced the normalized Huntingtin mRNA level by 26%, relative to the PBS control group. Both reductions were statistically significant (p<0.05, ANOVA with Tukey post-hoc analysis).
# With an identical experimental paradigm, AL-DP-5997 and AL-DP-6000 were also found to be effective in vivo in down-modulating HD mRNA levels after intrastriatal infusion with 1.3 mg over 7 days (0.5 uL/hr at 1.1 mM) in rats. AL-DP-5997 and AL-DP-6000 reduced the normalized Huntingtin mRNA levels in striatal tissue by 34% and 36%, respectively, relative to the PBS control group. In addition, AL-DP-5997 and AL-DP-6000 reduced the normalized Huntingtin mRNA levels in cortical tissue by 22% and 26% respectively.
substance,measurement,setting,value
"AL-DP-1998: cholesterol-conjugated dsRNA based on AL-DP-5997, antisense 3'-end TT replaced with 5-bromo-2'-deoxyuridine; SEQ ID NO: 888/889 (chain 1 GUCACAAAGAACCGUGCAGTT; chain 2 CUGCACGGUUCUUUGUGACNN; chemistry not fully specified)",reduction of normalized Huntingtin mRNA level relative to the PBS control group,Huntingtin mRNA [1],33%
same,reduction of normalized Huntingtin mRNA level in striatal tissue relative to the PBS control group,Huntingtin mRNA [2],26%
